Consider two molecules from ChEMBL document CHEMBL5370690, “Atypical N-Alkyl to N-Noralkoxy Switch in a Dual cSRC/BCR-ABL1 Kinase Inhibitor Improves Drug Efflux and hERG Affinity” (ACS Med Chem Lett, 2023).

Each structure is given as a SMILES string.

In general, IC50 refers to the concentration that gives 50% inhibition.

Data set [1] is described as follows: Mutagenicity in Salmonella typhimurium TA98 incubated for 96 hrs by Ames test. It counts as toxicity. As to conditions: salmonella enterica subsp. enterica serovar typhimurium.
Data set [2] is described as follows: Mutagenicity in Salmonella typhimurium TA100 incubated for 96 hrs by Ames test. The data set is classed as toxicity. As to conditions: salmonella enterica subsp. enterica serovar typhimurium.
Data set [3] can be described thus: Mutagenicity in Salmonella typhimurium TA1535 incubated for 96 hrs by Ames test. It counts as toxicity. As to conditions: salmonella enterica subsp. enterica serovar typhimurium.
Data set [4] is described as follows: Mutagenicity in Salmonella typhimurium TA1537 incubated for 96 hrs by Ames test. It counts as toxicity. As to conditions: salmonella enterica subsp. enterica serovar typhimurium. (In the Ames test, an excess of revertant colonies over the control signals mutagenicity.)
Another data set concerns MEG-01. Put plainly: Antiproliferative activity against human MEG-01 cells assessed as cell growth inhibition incubated for 72 hrs by Cell Titer-Glo Luminescent assay. As to conditions: MEG-01, 72 h. The data set is classed as functional, cell-based. A general note: Cellular ATP, detected with luciferase, serves as a proxy for viable cell number.
Another data set deals with SUP-B15. Briefly: Antiproliferative activity against human SUP-B15 cells assessed as cell growth inhibition incubated for 72 hrs by Cell Titer-Glo Luminescent assay. The data set is classed as functional, cell-based. The settings on record: SUP-B15, 72 h.
For another data set, the system named is KU812 cell line. Briefly: Antiproliferative activity against human KU812 cell line assessed as cell growth inhibition incubated for 72 hrs by Cell Titer-Glo Luminescent assay. It counts as functional, cell-based. The settings on record: KU812, 72 h.

For the molecule `COc1cc(Nc2c(C#N)cnc3cc(OCCON4CCN(C)CC4)c(OC)cc23)c(Cl)cc1Cl`, the Activity entry in data set [1], in data set [2], in data set [3] and in data set [4] was “Non-Toxic” each time.

Take `COc1cc(Nc2c(C#N)cnc3cc(OCCCN4CCN(C)CC4)c(OC)cc23)c(Cl)cc1Cl` [BOSUTINIB]: the half-maximal inhibitory concentration (IC50) with MEG-01 turned out to be 13 nM; with SUP-B15 it was 210 nM; with KU812 cell line, 3.6 nM.
